What was measured:
Assay type in all cases: cell-based, murine
[1] = test system: Hepa1-6 cell line; experiment: Mitochondrial reactive oxygen species (MitoSOX Red); conditions: for MitoSOX levels: 24 h
Method: Cell culture: The Hepa1-6 cell line (#CRL-1830, ATCC) was cultured in DMEM culture medium containing 1 g/L glucose, 10% fetal bovine serum, 2 mM glutamine, 100 U/mL Penicillin and 100 μg/mL Streptomycin and 30 μM oleic acid. Cells were seeded at a density of 20 000 cells per well in 96 well plates and incubated for overnight to allow the cells to attach at 37° C. with 5% CO2. Cells were then supplemented with the test substances at indicated concentrations and incubated for indicated time periods (24 h). For all assays the test substances were diluted in 10% DMSO/PBS further diluted with culture medium and added to the cells at the indicated concentrations with a final DMSO concentration of 0.01%. Vehicle controls were treated with 0.01% DMSO. Mitochondrial reactive oxygen species (ROS); Cells were treated for 24 h with the test substances at the indicated concentration, as well as positive (10 μM FCCP and 1 μM oligomycin) and negative control. Mitochondrial ROS was detected using MitoSOX™ Red mitochondrial superoxide indicator (#M36008, Invitrogen/Thermo Fisher Scientific). After 24 h treatment of the substances, cells were washed with 100 μl assay buffer (DMEM without phenol red with 4 mM L-glutamine, 4.5 g/L glucose and 1 mM Na-Pyruvate, pH7.4) three times, and 100 μl of […] MitoSOX Red (5 mM MitoSOX™ Red stock solution prepared as indicated by the manufacturer's instruction diluted in 1:2 500 in assay buffer) was added per well, followed by incubation for 30min at 37° C. with 5% CO2. After the incubation cells were washed with 100 μl assay buffer and 100 μl assay buffer was added per well. Fluorescence was measured at excitation 510 nm and emission 580 nm. Use flat, black bottom plates were used.

[2] = test system: Hepa1-6 cell line; experiment: ATP content (CellTiter-Glo Assay); conditions: for ATP levels: single agent, 24 h, lower (0.1-100 μM) and higher dose range, FIG. 1A and 1D
Method: Cell culture: The Hepa1-6 cell line (#CRL-1830, ATCC) was cultured in DMEM culture medium containing 1 g/L glucose, 10% fetal bovine serum, 2 mM glutamine, 100 U/mL Penicillin and 100 μg/mL Streptomycin and 30 μM oleic acid. Cells were seeded at a density of 20 000 cells per well in 96 well plates and incubated for overnight to allow the cells to attach at 37° C. with 5% CO2. Cells were then supplemented with the test substances at indicated concentrations and incubated for indicated time periods (24 h). For all assays the test substances were diluted in 10% DMSO/PBS further diluted with culture medium and added to the cells at the indicated concentrations with a final DMSO concentration of 0.01%. Vehicle controls were treated with 0.01% DMSO. ATP content: Cells were treated for 24 h with the test substances at the indicated concentrations. The cellular ATP content was assessed using the CellTiter-Glo Assay (#G7571, Promega) as per the manufacturer's instructions. Luminescence was detected in a plate reader spectrophotometer. The results were normalized to the luminescence intensity measured in vehicle treated cells and positive controls treated with 0.1% Triton-X, as well as 10 μM FCCP and 1 μM oligomycin. Flat, white bottom plate.

[3] = test system: Hepa1-6 cell line; experiment: Cytotoxicity (CyQuant LDH Cytotoxicity Assay); conditions: single agent, 24 h, lower and higher dose range, FIG. 1C and 1F
Method: Cells were seeded at a density of 20 000 cells per well in 96 well plates and incubated for overnight to allow the cells to attach at 37° C. with 5% CO2. Cells were then supplemented with the test substances at indicated concentrations and incubated for indicated time periods (24 h). For all assays the test substances were diluted in 10% DMSO/PBS further diluted with culture medium and added to the cells at the indicated concentrations with a final DMSO concentration of 0.01%. Vehicle controls were treated with 0.01% DMSO. Cytotoxicity: Cytotoxicity was assessed using the CyQuant™ LDH Cytotoxicity Assay Kit (#C20300/C20301, Thermo Fisher). After cells were cultured with the test substances for 24 h, 50 μL of the cell culture medium were transferred to a new 96 well plate and the cytotoxicity assay was performed as per the manufacturer's instructions. Absorbance was measured at 490 nm and background at 680 nm. The signal intensity of untreated cells was considered as the background signal of spontaneous LDH release and subtracted from all measurements. Cytotoxicity was expressed as the percentage of maximum signal intensity observed in freshly lysed cells. Flat, clear plate. 10 μM FCCP, 1 μM oligomycin, 0.1% Triton X as positive control.

[4] = single agent, lower and higher dose range, FIG. 1B and 1E

| Compound | MitoSOX levels ([1]; positive control, 1 μM oligomycin) | effect on mitochondrial function (ATP levels) compared with metformin ([2]; FIG. 1 legend, overall) | effect on mitochondrial function (ATP levels) compared with metformin ([2]; lower dose range (physiological doses of Metformin), FIG. 1A) | ATP levels [2] | effect on mitochondrial function (mitochondrial ROS levels) compared with metformin ([1]; FIG. 1 legend, overall) | effect on mitochondrial function (MitoSOX) compared with Metformin ([1]; lower dose range (physiological doses of Metformin), FIG. 1B) | MitoSOX levels [1, 4] | cytotoxicity (LDH) [3] |
| --- | --- | --- | --- | --- | --- | --- | --- | --- |
| CC[C@H]1/C=C/C=C/C[C@@H](C)[C@H](O)[C@@](C)(O)C(=O)[C@@H](C)[C@H](O)[C@@H](C)C(=O)[C@@H](C)[C@H](O)[C@@H](C)/C=C/C(=O)O[C@@H]2[C@H](C)[C@H](CC1)O[C@]1(CC[C@H](C)[C@H](C[C@@H](C)O)O1)[C@H]2C [oligomycin, reference compound] | no statistically significance | – | – | – | – | – | – | – |
| O=Cc1ccc(CO)o1 [5-HMF, 5-Hydroxymethylfurfural] | – | comparable to that of metformin | milder than that of Metformin | ATP reduction | comparable to that of metformin | milder than that of Metformin | trend of slight increase of MitoSOX levels | without cytotoxic effects |
| CN(C)C(=N)N=C(N)N [Metformin, reference compound] | – | – | – | ATP reduction | – | – | trend of slight increase of MitoSOX levels | without cytotoxic effects |

— US20240423948A1, “5-HYDROXYMETHYLFURFURAL FOR THE TREATMENT OF MITOCHONDRIAL DYSFUNCTION” (D-CAP LLC, priority 2021, published 2024)
